Experiment [1] is described as follows: Inhibition of FAS2 in Staphylococcus aureus assessed as inhibition of fatty acid synthesis by scintillation counting.
Experiment [2] relates to Enterococcus faecalis. As to the kind of experiment: Antibacterial activity against Enterococcus faecalis CL8516. Format: functional.
For experiment [3], the system named is Staphylococcus aureus. Put plainly: Antibacterial activity against Staphylococcus aureus Smith. It is filed as functional.
Experiment [4] deals with Streptococcus pneumoniae. As to the kind of experiment: Antibacterial activity against Streptococcus pneumoniae CL2883. It is filed as functional.
For experiment [5], the system named is Staphylococcus aureus. As to the kind of experiment: Antibacterial activity against Staphylococcus aureus assessed as minimum concentration required to differential zone of clearance between antisense plate compared to control. It is filed as functional.
The nature of experiment [6]: Inhibition of FabH in Staphylococcus aureus assessed as inhibition of fatty acid synthesis.
Experiment [7] has as its system Staphylococcus aureus. As to the kind of experiment: Antibacterial activity against Staphylococcus aureus Smith at 64 ug/mL. Format: functional, organism-based.
Experiment [8] relates to Staphylococcus aureus. Put plainly: Inhibition of FAS2 in Staphylococcus aureus assessed as inhibition of fatty acid synthesis at 167 ug/ml.
Experiment [9] concerns Streptococcus pneumoniae. Put plainly: Antibacterial activity against Streptococcus pneumoniae CL2883 at 64 ug/mL. Format: functional, organism-based.
In experiment [10] the test system is Enterococcus faecalis. As to the kind of experiment: Antibacterial activity against Enterococcus faecalis CL8516 at 64 ug/mL. Format: functional, organism-based.
The nature of experiment [11]: Inhibition of Escherichia coli FabF C163F.

Converted amounts (≈) assume the structure as drawn. The source made the active and inactive calls. The calls are words filed in the database; no cut-off is given here.

What is called IC50 is the concentration that gives 50% inhibition. Usually MIC stands for the least concentration at which growth counts as inhibited.

As for `CC12C[C@@]34C=CC(=O)[C@@](C)(CCC(=O)Nc5c(O)ccc(C(=O)O)c5O)C3[C@H](CC1C4)O2` (stereo partly drawn) [PLATENSIMYCIN], the 50% inhibitory concentration (IC50) in experiment [1] came to 0.5 µg/mL (≈ 1.13 µM).
On to `C=C1C[C@@]23C=CC(=O)[C@@](C)(CCC(=O)Nc4c(O)ccc(C(=O)O)c4O)C2C[C@@H]1C[C@H]3O` (stereo partly drawn), for which the MIC in experiment [2] was 8 µg/mL (≈ 18.1 µM); in experiment [3], 32 µg/mL (≈ 72.5 µM); in [4], more than 64 µg/mL. Besides, the IC50 in [1] came out at 7.12 µg/mL (≈ 16.1 µM); in experiment [6], 15 µg/mL (≈ 34 µM). In experiment [5], the Activity worked out at 20 µg/mL.
As to `C=C1C[C@@]23C=CC(=O)[C@@](C)(CCC(=O)OC)C2C[C@@H]1C[C@H]3O` (stereo partly drawn), the outcome in experiment [7], in experiment [8], in experiment [9] and in experiment [10] was inactive.
In the case of `C=C1C[C@@]23C=CC(=O)[C@@](C)(CCC(=O)Nc4c(O)ccc(C(=O)O)c4O)[C@@H]2C[C@@H]1CC3` [PLATENCIN], the IC50 in [1] was determined as 12 µg/mL (≈ 28.2 µM); in [11] it was 113 nM. Also, in experiment [5], the Activity was determined as 0.2 µg/mL.
As to `C=C1C[C@@]23C=CC(=O)[C@@](C)(CCC(=O)Nc4c(O)ccc(C(=O)OC)c4O)C2C[C@@H]1C[C@H]3O` (stereo partly drawn), the outcome in experiment [7], in experiment [8], in [9] and in experiment [10] was inactive.

Source of the values: ChEMBL document CHEMBL1153069, “Isolation, enzyme-bound structure and antibacterial activity of platencin A1 from Streptomyces platensis” (Bioorg Med Chem Lett, 2009).
